Type in all cases: biochemical
The subject of one assay is E. coli DNA Polymerase. In words: Primer extension on monoadducted 71-mer, E. coli DNA polymerase. Conditions: 37° C., 0, 5 or 15 minutes.
The subject of a further assay is Klenow Polmerase. In words: Primer extension on monoadducted 71-mer, Klenow polymerase. Conditions: 37° C., 0, 5 or 15 minutes.
A further assay has as its system T4 polymerase. In words: Primer extension on monoadducted 71-mer, T4 polymerase. Conditions: 37° C., 0, 5 or 15 minutes. The source says:
The sequences that are presented in FIG. 26 describe several oligonucleotides that are used in the synthesis of either a normal 71-mer or the identical 71-mer containing a site-specifically placed psoralen or isopsoralen monoadduct. The 71-mer is a sub-sequence of the Human Immunodeficiency Virus (HIV) sequence. (An HIV DNA system is described in a co-pending application, Serial No. 225,725.) SK-39 is a primer oligonucleotide that is complementary to the 3′ end of the 71-mers. This primer oligonucleotide can be extended on the 71-mer template to make a complementary strand of the 71-mer.
Preparation of 71-mers which contain site-specific monoadducts involves 1) preparation of different 15-mer monoadducts from the same unmodified 15-mer (HRI-42), and 2) ligation of the different 15-mer monoadducts to the same 56-mer “extender oligonucleotide” (HRI 102) using a 25-mer oligonucleotide (HRI-45) as a splint. The arrows in FIG. 27 indicate the direction of synthesis, while the monoadduct is indicated by a short line that is perpendicular to the oligomer. While each of the 71-mer monoadducts contains the adduct at a base position that is greater than 56 bases from the 5′ end, the precise position of the monoadduct is not meant to be indicated.
To prepare the 15-mer adducts, the 15-mer was incubated with a complementary 10-mer along with psoralen or isopsoralen under hybridization conditions. The mixture was then irradiated to provide the monoadducted 15-mer. While the invention is not dependent on knowing the precise mechanism of coupling, it has generally been believed that the 10-mer directs the isopsoralen to a single TpA site within the double-stranded helix formed by the 10-mer/15-mer hybrid. […]
To provide highly purified 71-mers which contain a single monoadduct, it was necessary to provide highly purified 15-mer monoadduct prior to the ligation step. […] Separation of 15-mer monoadduct from unmodified 15-mer was readily accomplished by PAGE (while the same technique is not effective for separation of the corresponding unmodified 71-mer and monoadducted 71-mer sequences). […]

The subject of a further assay is Reverse Transcriptase. In words: Primer extension on monoadducted 71-mer, reverse transcriptase. Conditions: 37° C., 0, 5 or 15 minutes.
The next assay deals with Taq polymerase (Thermus aquaticus, UniProt P19821). In words: Taq primer extension of 71-mer after random addition of compound or photoproduct. Conditions: for extension of 71-mer irradiated with compound: AMIP 200 μg/ml, AMDMIP 200 μg/ml, irradiated 15 minutes CE-I at 25° C. The source says:
In this experiment, the ability of AMIP, AMDMIP and MIF to block replication of 71-mer is investigated by randomly adding each compound to the 71-mer. Of course, addition may only be random in the sense that one or more adducts may be formed with any one strand of nucleic acid. The actual placement of the isopsoralen may be governed by preferential binding at particular sites (e.g. A:T). In addition to blockage by random adducts, photoproducts of the various isopsoralens may be providing an inhibitory effect. No attempt to separate the effects of photoproduct from the effects of covalent adducts on the 71-mer template was made in this series of experiments.
In these experiments, the 71-mer template (10^−9 M) was primed with ^32P-SK-39 (10^−8) and extended with Taq polymerase in a total volume of […]. The dNTP concentration was 200 μM. In the control samples, the 71-mer, the primer, and the dNTPs were mixed in Taq buffer in a volume of 18 p1. These samples were initially denatured at 95° C. for 5 minutes, followed by equilibration at 55° C. for 3 minutes. Taq enzyme was then added (0.5 units) and the extension reaction was carried out for 5 minutes at 55° C. The reaction was stopped by making the solution 10 mM in EDTA. In another set of samples, the 71-mer in 10 μl was mixed with either AMIP (200 μg/ml), AMDMIP (200 μg/ml), or MIP (60 μg/ml). Half of these samples were irradiated for 15 minutes on the CE-I device at 25° C. The other half was kept in the dark as controls. These samples were then mixed with the primer and dNTPs as before, and were subjected to the same thermal profile and extension reactions as the samples that were described earlier. The results were examined by PAGE. The extended product bands were identified by autoradiography, excised and counted (data not shown). […]
71-mer was made up in Taq buffer. Samples were prepared as follows: 1) dark control samples were not subjected to activating light; 2) 10 μl samples of the 71-mer (2×10^−9 M) were irradiated in the presence of 200 μg/ml AMDMIP, and 3) 10 μl samples of a 200 μg/ml solution of AMDMIP were irradiated in the absence of the 71-mer target. All irradiations were carried out with the CE-I device at 25° C. After preparing the above samples, unirradiated AMDMIP was added to one set of the dark control samples. Another set of dark controls received irradiated AMDMIP. ^32P-SK-39 primer and dNTPs were then added to all samples and the volume was adjusted to 18 μl. These samples were denatured at 95° C. for 5 minutes, followed by equilibration at 55° C. for 3 minutes. Taq polymerase was then added and the extension reaction was carried out for 5 minutes. The reaction was stopped by bringing the samples to 10 mM in EDTA. The final concentrations of all reagents during the extension reactions were: […]

Sequence of Taq polymerase (P19821 whole entry): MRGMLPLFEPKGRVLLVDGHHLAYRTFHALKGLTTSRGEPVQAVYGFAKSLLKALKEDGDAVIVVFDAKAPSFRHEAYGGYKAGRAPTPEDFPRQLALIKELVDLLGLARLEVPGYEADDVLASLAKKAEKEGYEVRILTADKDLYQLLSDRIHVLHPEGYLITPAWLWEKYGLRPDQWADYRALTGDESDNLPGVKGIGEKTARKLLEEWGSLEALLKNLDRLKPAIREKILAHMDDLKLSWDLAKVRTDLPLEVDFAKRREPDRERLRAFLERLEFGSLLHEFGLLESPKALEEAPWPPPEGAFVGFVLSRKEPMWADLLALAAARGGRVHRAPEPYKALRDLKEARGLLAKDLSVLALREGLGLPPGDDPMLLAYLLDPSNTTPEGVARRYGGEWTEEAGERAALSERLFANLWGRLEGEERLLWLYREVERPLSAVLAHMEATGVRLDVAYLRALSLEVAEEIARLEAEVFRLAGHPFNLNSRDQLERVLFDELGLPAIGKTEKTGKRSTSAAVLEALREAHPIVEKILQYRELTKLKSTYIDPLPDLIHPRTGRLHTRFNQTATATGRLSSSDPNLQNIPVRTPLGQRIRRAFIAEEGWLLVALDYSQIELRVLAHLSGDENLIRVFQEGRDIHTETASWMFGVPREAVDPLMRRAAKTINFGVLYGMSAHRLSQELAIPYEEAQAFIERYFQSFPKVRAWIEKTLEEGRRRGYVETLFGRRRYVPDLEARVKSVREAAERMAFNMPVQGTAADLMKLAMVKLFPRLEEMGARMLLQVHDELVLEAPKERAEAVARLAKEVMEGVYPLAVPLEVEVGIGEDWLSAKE

In the case of `Cc1oc2ccc3c(C)cc(=O)oc3c2c1CN` [AMDMIP, 4′-Aminomethyl-4,5′-dimethylisopsoralen], the “block of primer extension by 71-mer monoadduct” value (“block of primer extension” below) with E. coli DNA Polymerase, in the assay on Klenow Polmerase, with T4 polymerase and in the assay on Reverse Transcriptase was “complete stop” each time. Besides, at Taq polymerase (200 μg/ml during irradiation, CE-I at 25° C.), the “extension of 71-mer irradiated in the presence of AMDMIP” value is “no extension products at all”. In addition, on Taq polymerase (AMDMIP 100 μg/ml final), the “extension of 71-mer, dark control with unirradiated AMDMIP” value is on record as “full length extension product”. The “extension of 71-mer irradiated with compound” value (shortened to “extension … with compound”) on Taq polymerase (MIP 60 μg/ml) is given as “not extended at all”.

With `NCc1cc2occc2c2oc(=O)ccc12` [AMIP, 5-Aminomethylisopsoralen], the “block of primer extension” value in the assay with E. coli DNA Polymerase is given as “not complete stops”; in the assay on Klenow Polmerase it was “not complete stops”; in the assay with T4 polymerase, “complete stops”; in the assay with Reverse Transcriptase, “complete stops”. The “extension … with compound” value on Taq polymerase (MIP 60 μg/ml) was “not extended at all”.

As to `Cc1cc2occc2c2oc(=O)ccc12` [MIP, 5-Methylisopsoralen], the “block of primer extension” value was “not complete stops” with E. coli DNA Polymerase, “not complete stops” in the assay with Klenow Polmerase, “complete stops” in the assay with T4 polymerase and “complete stops” with Reverse Transcriptase. Also, the “extension … with compound” value at Taq polymerase (MIP 60 μg/ml) was “some full length extension product and a minor truncated product”. Also, the “amount of full length product versus control samples” value at Taq polymerase (MIP 60 μg/ml, irradiated 15 minutes CE-I) was “half of that observed with the control samples”.

(Values after patent publication US6680025B2, “Device and method for photoactivation” (Cerus Corporation, priority 1989, dated 2004).)
